In patent US20030180927A1, “Yeast protein methyltransferase hsl7p” (priority 2003, published 2003):

T1: Hs17p (Saccharomyces cerevisiae, UniProt P38274)
T1 construct: made in house; host or cells: S. cerevisiae hsl7-delta strain SPY103 (pGALFLAGHSL7, GAL1 promoter); anti-Flag immunoprecipitate
T1 sequence (P38274 1-827): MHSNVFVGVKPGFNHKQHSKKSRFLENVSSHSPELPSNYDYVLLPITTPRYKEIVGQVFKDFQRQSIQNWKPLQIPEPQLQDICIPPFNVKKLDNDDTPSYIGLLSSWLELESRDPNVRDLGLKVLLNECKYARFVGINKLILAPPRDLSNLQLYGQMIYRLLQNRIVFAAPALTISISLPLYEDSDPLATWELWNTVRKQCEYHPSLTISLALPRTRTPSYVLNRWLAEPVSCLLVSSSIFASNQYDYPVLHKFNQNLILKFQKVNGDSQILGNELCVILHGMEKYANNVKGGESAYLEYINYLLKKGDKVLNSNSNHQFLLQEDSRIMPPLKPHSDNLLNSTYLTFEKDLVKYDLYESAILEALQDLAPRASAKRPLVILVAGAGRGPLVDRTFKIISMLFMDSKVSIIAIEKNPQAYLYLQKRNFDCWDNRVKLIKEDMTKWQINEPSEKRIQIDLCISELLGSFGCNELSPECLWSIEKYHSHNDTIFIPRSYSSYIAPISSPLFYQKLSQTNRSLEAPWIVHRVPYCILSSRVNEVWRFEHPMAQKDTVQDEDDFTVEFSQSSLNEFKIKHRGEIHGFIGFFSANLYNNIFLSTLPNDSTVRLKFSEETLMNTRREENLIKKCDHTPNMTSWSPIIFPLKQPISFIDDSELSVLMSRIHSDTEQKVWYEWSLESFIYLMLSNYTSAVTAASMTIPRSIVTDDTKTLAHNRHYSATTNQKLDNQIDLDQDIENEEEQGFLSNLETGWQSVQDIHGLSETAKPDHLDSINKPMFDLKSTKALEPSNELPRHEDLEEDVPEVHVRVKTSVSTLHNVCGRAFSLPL


Experiments:
JBP1 = JBP1 (Homo sapiens, UniProt O14744); assay: In vitro methylation of myelin basic protein by JBP1, inhibition; assay type: biochemical; conditions: [3H]AdoMet methyl donor, 30° C., 30 minutes, FIG. 2C
Method: (§1) In Vitro Methylation. Immunoprecipitated Flag-Hs17p was used to methylate histones and myelin basic protein with minor modifications of the method previously described. Each reaction contained 10 ig of substrate proteins (histones, MBP and cytochrome c). [^3H]AdoMet was added to a final concentration of 55 iCi/ml. The reaction contained 150 mM NaCl, 50 mM Tris.HCl (pH 8.0), 1% NP-40, 0.8 mM PMSF, 3 μg/ml antipain, 10 ig/ml benzamidine (10^4 kallikrein-inactivating units/ml) plus 1 μg/ml each of leupeptin, chymostatin and pepstatin. The 50 μl reactions were incubated at 30° C. for 30 minutes.
(§2) FIG. 2 illustrates the UV crosslinking of [^3H]AdoMet to Hs17p. […] After UV crosslinking, the 7.5% gel was dried and exposed to Biomax MR film for 15 days at −70° C. FIG. 2B show the in vitro methylation of protein substrates by Hs17p. Methylation reactions were done as described in “Experimental Procedures.” Each lane contained 10 μg at substrate protein. The position of the labeled bands coincided exactly with the location of the substrate proteins or the Coomassie blue-stained gel (not shown). The dried 15% gel was exposed to Biomax MR film for 21 days at −70° C. […] Protein sizes were calculated by the migration of broad range protein standards (BioRad).

Hs17p = molecular target: T1, Hs17p; assay: In vitro methylation of myelin basic protein by Hs17p, inhibition; assay type: biochemical; conditions: [3H]AdoMet methyl donor, 30° C., 30 minutes, FIG. 2C
Method: as §1, §2

[1] = UV crosslinking of [3H]AdoMet; assay type: binding; conditions: immunoprecipitated protein, FIG. 2A
Method: UV Crosslinking. Crosslinking of [^3H]AdoMet to Hs17p and JBP1 was performed as described.
FIG. 2 illustrates the UV crosslinking of [^3H]AdoMet to Hs17p. […] After UV crosslinking, the 7.5% gel was dried and exposed to Biomax MR film for 15 days at −70° C. FIG. 2B show the in vitro methylation of protein substrates by Hs17p. Methylation reactions were done as described in “Experimental Procedures.” Each lane contained 10 μg at substrate protein. The position of the labeled bands coincided exactly with the location of the substrate proteins or the Coomassie blue-stained gel (not shown). The dried 15% gel was exposed to Biomax MR film for 21 days at −70° C. […] Protein methylation reactions were conducted as described in “Experimental Procedures,” except that homocysteine was added to the other reaction components on ice. The reactions were then incubated at 30° C. for 30 minutes. The 15% gel was exposed to Biomax MR film for 14 days at −70° C. Protein sizes were calculated by the migration of broad range protein standards (BioRad).

[2] = tested on: calf histones, bovine myelin basic protein and bovine cytochrome c; assay: In vitro methylation of protein substrates; assay type: biochemical; conditions: substrates H2A, H4 and myelin basic protein, 10 μg, FIG. 2B
Method: as §1, §2

JBP1, sequence (O14744 whole entry): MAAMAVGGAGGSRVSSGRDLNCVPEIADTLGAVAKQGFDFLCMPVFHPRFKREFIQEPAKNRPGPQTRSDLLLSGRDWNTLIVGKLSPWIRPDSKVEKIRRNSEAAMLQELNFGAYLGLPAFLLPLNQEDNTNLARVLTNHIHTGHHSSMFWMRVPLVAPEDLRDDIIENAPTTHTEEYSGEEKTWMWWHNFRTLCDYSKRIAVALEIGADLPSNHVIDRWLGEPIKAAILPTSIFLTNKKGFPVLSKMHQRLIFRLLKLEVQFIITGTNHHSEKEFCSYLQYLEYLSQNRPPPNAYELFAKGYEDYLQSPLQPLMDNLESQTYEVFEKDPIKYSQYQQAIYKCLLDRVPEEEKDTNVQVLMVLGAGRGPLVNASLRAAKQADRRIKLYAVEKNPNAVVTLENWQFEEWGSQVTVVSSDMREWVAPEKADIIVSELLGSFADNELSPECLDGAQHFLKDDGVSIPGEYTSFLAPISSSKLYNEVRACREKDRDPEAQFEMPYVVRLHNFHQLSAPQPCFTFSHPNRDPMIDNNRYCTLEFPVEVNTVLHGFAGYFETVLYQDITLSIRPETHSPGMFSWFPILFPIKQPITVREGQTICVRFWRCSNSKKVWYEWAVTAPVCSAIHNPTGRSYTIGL
JBP1, sequence (Q9BQA1 whole entry partner): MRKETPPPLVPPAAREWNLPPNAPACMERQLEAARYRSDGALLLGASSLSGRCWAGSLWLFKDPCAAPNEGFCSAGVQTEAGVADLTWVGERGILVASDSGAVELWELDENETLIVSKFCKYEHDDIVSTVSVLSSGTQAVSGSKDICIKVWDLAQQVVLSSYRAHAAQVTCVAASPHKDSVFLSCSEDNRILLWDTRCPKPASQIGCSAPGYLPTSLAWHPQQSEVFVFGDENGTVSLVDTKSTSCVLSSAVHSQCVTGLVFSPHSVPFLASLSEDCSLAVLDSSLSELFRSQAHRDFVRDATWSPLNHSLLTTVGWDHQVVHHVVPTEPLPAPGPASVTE

inhibition of myelin basic protein in vitro methylation by JBP1 (JBP1)	inhibition of myelin basic protein in vitro methylation by Hs17p (Hs17p)	UV crosslinking / binding of [3H]AdoMet [1]	Molecule	in vitro methylation of substrate protein [2]
blocks	blocks	–	N[C@@H](CCS)C(=O)O [homocysteine]	–
–	–	binds AdoMet	Hs17p: yeast protein methyltransferase, homologue of Janus kinase binding protein 1, expressed by HSL7 (protein, UniProt P38274 1-827, looked up, FLAG tag) Protein arginine …: MHSNVFVGVKPGFNHKQHSKKSRFLENVSSHSPELPSNYDYVLLPITTPRYKEIVGQVFKDFQRQSIQNWKPLQIPEPQLQDICIPPFNVKKLDNDDTPSYIGLLSSWLELESRDPNVRDLGLKVLLNECKYARFVGINKLILAPPRDLSNLQLYGQMIYRLLQNRIVFAAPALTISISLPLYEDSDPLATWELWNTVRKQCEYHPSLTISLALPRTRTPSYVLNRWLAEPVSCLLVSSSIFASNQYDYPVLHKFNQNLILKFQKVNGDSQILGNELCVILHGMEKYANNVKGGESAYLEYINYLLKKGDKVLNSNSNHQFLLQEDSRIMPPLKPHSDNLLNSTYLTFEKDLVKYDLYESAILEALQDLAPRASAKRPLVILVAGAGRGPLVDRTFKIISMLFMDSKVSIIAIEKNPQAYLYLQKRNFDCWDNRVKLIKEDMTKWQINEPSEKRIQIDLCISELLGSFGCNELSPECLWSIEKYHSHNDTIFIPRSYSSYIAPISSPLFYQKLSQTNRSLEAPWIVHRVPYCILSSRVNEVWRFEHPMAQKDTVQDEDDFTVEFSQSSLNEFKIKHRGEIHGFIGFFSANLYNNIFLSTLPNDSTVRLKFSEETLMNTRREENLIKKCDHTPNMTSWSPIIFPLKQPISFIDDSELSVLMSRIHSDTEQKVWYEWSLESFIYLMLSNYTSAVTAASMTIPRSIVTDDTKTLAHNRHYSATTNQKLDNQIDLDQDIENEEEQGFLSNLETGWQSVQDIHGLSETAKPDHLDSINKPMFDLKSTKALEPSNELPRHEDLEEDVPEVHVRVKTSVSTLHNVCGRAFSLPL	methylated
